# Laboratory results as given in US11260079B2, “Dosing regimens for the mobilization of hematopoietic stem and progenitor cells” (Magenta Therapeutics, Inc., priority 2017, dated 2022).
# B1: G-CSF: Filgrastim (G-CSF), most common clinical hematopoietic stem cell mobilization protocol (protein, chains of the INN, looked up)
# chain: MTPLGPASSLPQSFLLKCLEQVRKIQGDGAALQEKLCATYKLCHPEELVLLGHSLGIPWAPLSSCPSQALQLAGCLSQLHSGLFLYQGLLQALEGISPELGPTLDTLQLDVADFATTIWQQMEELGMAPALQPTQGAMPAFASAFQRRAGGVLVASHLQSFLEVSYRVLRHLAQP
# Key:
# [1] = test system: CD34^+ hematopoietic stem and progenitor cells; settings: Rhesus monkeys; plerixafor 1 mg/kg subcutaneously; median value
# Protocol: (§1) Male rhesus macaques were treated with AMD3100 alone or in combination with Gro-β T. Blood was collected immediately prior to and 0.5, 1, 2, 4 and 24 hours after treatment and analyzed by multicolor flow cytometry to quantitate HSPC numbers. Additional aliquots of mobilized blood were plated in methylcellulose and CFU were enumerated seven days later.
# (§2) The data shown in FIGS. 7 and 8 include the percentage of whole blood accounted for by CD34^+ hematopoietic stem and progenitor cells for each treatment group. Absolute numbers and fold change in CD34^+ cells per μL of peripheral blood were quantified with a single platform quantitative method. Data shown in FIGS. 7 and 8 are expressed as mean±SEM and represent 5 animals per group. Statistical significance was determined based on 2-way ANOVA with post-hoc Dunnett's multiple comparisons test (* p<0.05, ** p<0.01, **** p<0.0001).
# as §2, with “9” for “7”, “10” for “8”, “CD34^+ CD90^+ CD45RA^−” for “CD34^+”, “are shown.” for “were quantified with a single platform quantitative method.”, “p<0.05. **p<0.01, *** p<0.001,” for “p<0.05, ** p<0.01,”
# Additional data summarizing the mobilization of CD34^+ cells (e.g., CD34^+ CD90^+ CD45RA^− cells) in Rhesus monkeys using various doses of Gro-beta T and AMD3100 are reported in TABLES 8-11, below. Quantities are reported in TABLES 8-11 using the following notation: “Median value (Minimum value observed−maximum value observed).”
# [2] = test system: NOD scid gamma (NSG) mice; assay: Xenograft GVHD model; assay type: in vivo; settings: for numbers of T-cells as compared to mice transplanted with Gro-β T and AMD3100-mobilized PBMCs: NSG mice, day 14 post-transplant; for mice died of aGVHD at day 24 / mice remained alive at day 60 post-transplant: sublethally irradiated NSG mice transplanted with 6×10^6 mobilized PBMCs
# Protocol: To assess whether these immunosuppressive cells may prevent GVHD, we developed a xenograft GVHD model in NOD scid gamma (NSG) mice, which are immunodeficient mice. Gro-β T and AMD3100 mobilized peripheral blood (6×10^6 PBMCs) containing a high percentage of CD34^dim cells were injected into sublethally irradiated NSG mice. This was compared to unmobilized primate PBMCs (6×10^6 PBMCs) containing a relatively low numbers of CD34^dim cells and G-CSF mobilized primate PBMCs (6×10^6 PBMCs).
# [3] = test system: white blood cells, neutrophils, lymphocytes and monocytes; settings: Rhesus monkeys; plerixafor 1 mg/kg subcutaneously; median value
# Protocol: as §1
# Animals were mobilized with AMD3100 alone or in combination with Gro-β T. Peripheral blood was collected at the time points shown and white blood cells enumerated on a HESKA Hematology Analyzer. Total number of white blood cells, neutrophils, lymphocytes and monocytes per μL of peripheral blood were determined. Data shown in FIGS. 2-5 are expressed as mean±SEM and represent 5 animals per group. Statistical significance was determined based on 2-way ANOVA with post-hoc Dunnett's multiple comparisons test (** p<0.01).
# [4] = test system: hematopoietic stem and progenitor cell mobilization; settings: cited from earlier work; for potency of hematopoietic stem and progenitor cell mobilization relative to Gro-β: described in U.S. Pat. Nos. 6,080,398 and 6,447,766
# [5] = test system: stem and progenitor cells (LT-HSC); assay: Mobilization of stem and progenitor cells in mice; assay type: in vivo; settings: 15 minutes after a single injection
# [6] = test system: CD34^dim cells; assay: Mobilization of CD34^dim cells, flow cytometry; assay type: in vivo; settings: Rhesus macaques; 4 hours after the last dose of G-CSF; n=3
# Protocol: Cells were mobilized according to the method of Example 1. A sample of peripheral blood was tested using a flow cytometer for the markers CD34, CD11b, CD14, CD16, CD45, and SSC.
# Rhesus macaques were treated with Gro-β T, […], Gro-β T and AMD3100, or G-CSF alone. A sample of peripheral blood was tested using a flow cytometry.
molecule,measurement,setting,value
"c1cc(CN2CCCNCCNCCCNCC2)ccc1CN1CCCNCCNCCCNCC1 [plerixafor, 1,1′-[1,4-phenylenebis(methylene)]-bis-1,4,8,11-tetra-azacyclotetradecane]",Fold increase vs. baseline following sc administration of AMD3100: CD34^+,[1],9.1 fold
same,Fold increase vs. baseline following sc administration of AMD3100: CD34^+ CD90^+ CD54RA^−,[1],14.9 fold
same,Quantity of cells observed 4 hours following sc administration of AMD3100: CD34^+,[1],41054
same,Quantity of cells observed 4 hours following sc administration of AMD3100: CD34^+ CD90^+ CD54RA^−,[1],14820
same,Ratio of fold increase of CD34^+ CD90^+ CD45RA^− cells to other cell populations: CD34^+,[1],1.4
same,Ratio of fold increase of CD34^+ CD90^+ CD45RA^− cells to other cell populations: Lymphocytes,[1],5.7
same,Ratio of fold increase of CD34^+ CD90^+ CD45RA^− cells to other cell populations: Monocytes,[1],1.6
same,Ratio of fold increase of CD34^+ CD90^+ CD45RA^− cells to other cell populations: Neutrophils,[1],3.0
same,Ratio of fold increase of CD34^+ CD90^+ CD45RA^− cells to other cell populations: WBCs,[1],3.7
same,Ratio of fold increase of CD34^+ cells to other cell populations: CD34^+ CD90^+ CD54RA^−,[1],0.7
same,Ratio of fold increase of CD34^+ cells to other cell populations: Lymphocytes,[1],4.0
same,Ratio of fold increase of CD34^+ cells to other cell populations: Monocytes,[1],1.2
same,Ratio of fold increase of CD34^+ cells to other cell populations: Neutrophils,[1],2.1
same,Ratio of fold increase of CD34^+ cells to other cell populations: WBCs,[1],2.3
same,Ratio of quantity of CD34^+ CD90^+ CD45RA^− cells to other cell populations: CD34^+,[1],0.352
same,Ratio of quantity of CD34^+ CD90^+ CD45RA^− cells to other cell populations: Lymphocytes,[1],0.0011
same,Ratio of quantity of CD34^+ CD90^+ CD45RA^− cells to other cell populations: Monocytes,[1],0.0039
same,Ratio of quantity of CD34^+ CD90^+ CD45RA^− cells to other cell populations: Neutrophils,[1],0.0006
same,Ratio of quantity of CD34^+ CD90^+ CD45RA^− cells to other cell populations: WBCs,[1],0.0003
same,Ratio of quantity of CD34^+ cells to other cell populations: CD34^+ CD90^+ CD54RA^−,[1],2.838
same,Ratio of quantity of CD34^+ cells to other cell populations: Lymphocytes,[1],0.0025
same,Ratio of quantity of CD34^+ cells to other cell populations: Monocytes,[1],0.0111
same,Ratio of quantity of CD34^+ cells to other cell populations: Neutrophils,[1],0.0015
same,Ratio of quantity of CD34^+ cells to other cell populations: WBCs,[1],0.0009
same,numbers of T-cells as compared to mice transplanted with Gro-β T and AMD3100-mobilized PBMCs,[2],approximately 60 fold
same,mice died of aGVHD at day 24,[2],5/16
same,mice remained alive at day 60 post-transplant,[2],10/16
same,Fold increase vs. baseline following sc administration of AMD3100: Lymphocytes,[3],2.5 fold
same,Fold increase vs. baseline following sc administration of AMD3100: Monocytes,[3],7.9 fold
same,Fold increase vs. baseline following sc administration of AMD3100: Neutrophils,[3],5.0 fold
same,Fold increase vs. baseline following sc administration of AMD3100: WBCs,[3],2.3 fold
same,Quantity of cells observed 4 hours following sc administration of AMD3100: Lymphocytes,[3],1.35E+07
same,Quantity of cells observed 4 hours following sc administration of AMD3100: Monocytes,[3],3.10E+06
same,Quantity of cells observed 4 hours following sc administration of AMD3100: Neutrophils,[3],2.10E+07
same,Quantity of cells observed 4 hours following sc administration of AMD3100: WBCs,[3],3.90E+07
Gro-β N69D: variant of Gro-β with aspartic acid in place of asparagine at position 69 (SEQ ID NO: 3),potency of hematopoietic stem and progenitor cell mobilization relative to Gro-β,[4],superior potency
Gro-β T N65D: variant of Gro-β T with aspartic acid in place of asparagine at position 65 (SEQ ID NO: 4),potency of hematopoietic stem and progenitor cell mobilization relative to Gro-β T,"[4]; described in U.S. Pat. No. 6,447,766",substantially greater than that of Gro-β T
Gro-β T: CXCR2 agonist; Gro-β with deletion of the first four amino acids from the N-terminus (SEQ ID NO: 2),mobilization of stem and progenitor cells,[5],rapid mobilization
same,potency of hematopoietic stem and progenitor cell mobilization relative to Gro-β,[4],superior to that of Gro-β by multiple orders of magnitude
B1,numbers of T-cells as compared to mice transplanted with Gro-β T and AMD3100-mobilized PBMCs,[2],approximately 10 fold
same,mice died of aGVHD at day 24,[2],3/16
same,mice remained alive at day 60 post-transplant,[2],11/16
same,increase over baseline in the number of CD34^dim cells,[6],about a nine-fold increase
